According to patent publication US20230089557A1, “METHODS OF TREATING DLBCL USING BTK INHIBITORS AND COMBINATIONS THEREOF” (BEIGENE SWITZERLAND GMBH, priority 2020, published 2023):

System: R/R non-GCB DLBCL
Assay: Compound 1 monotherapy in patients with R/R non-GCB DLBCL
Type: in vivo, human
Settings: for unadjusted ORR: non-GCB DLBCL
Experimental: A total of 121 patients with R/R non-GCB DLBCL were recruited in four Compound 1 treatment studies that were conducted at a similar time period. Two of the four studies were Compound 1 monotherapy (n=79) and two were Compound 1 combined with an anti-CD20 antibody therapy (n=42). Similar inclusion and exclusion criteria and response evaluation criteria were used across all studies. Fifty-six non-GCB patients were further subtyped by gene expression profiling (GEP) using the HTG EdgeSeq DLBCL Cell of Origin Assay. The expression of approximately 90 lymphoma-associated genes from the HTG GEP assay were analyzed by R package limma for correlation with response to Compound 1 treatment. Seventy-seven patient samples were tested by next-generation sequencing (NGS) with a panel of genes. Chi-square test was used to evaluate the correlation between mutations and the objective response rate (ORR).
Monotherapy schedule 1: Compound 1 was administered orally every day at 160 mg twice daily (BID) in 28-day cycles in patients with R/R non-GCB DLBCL.
Monotherapy schedule 2: Compound 1 was administered orally every day in each cycle at 160 mg BID in 28-day cycles in patients with R/R non-GCB DLBCL.
79 patients with non-GCB DLBCL were subjected to Compound 1 monotherapies (Monotherapy Schedule 1 or 2).

[1] = monotherapy 160 BID Schedule 1, ABC Subtype of DLBCL Patients
[2] = monotherapy 160 BID Schedule 1, CD79B ITAM_Mut
[3] = monotherapy 160 BID Schedule 1, CD79B ITAM_WT
[4] = monotherapy 160 BID Schedule 1, CD79B_Mut
[5] = monotherapy 160 BID Schedule 1, CD79B_WT
[6] = monotherapy 160 BID Schedule 1, MYD88_L265P
[7] = monotherapy 160 BID Schedule 1, MYD88_WT
[8] = monotherapy 160 BID Schedule 1, NOTCH1_Mut
[9] = monotherapy 160 BID Schedule 1, NOTCH1_WT
[10] = monotherapy 160 BID Schedule 1, Non-GCB DLBCL Patients
[11] = monotherapy 160 BID Schedule 1, Non-GCB DLBCL Patients with Sequence Available
[12] = monotherapy 160 BID Schedule 1, Patients with Sequence Available
[13] = monotherapy 160 BID Schedule 2, ABC Subtype of DLBCL Patients
[14] = monotherapy 160 BID Schedule 2, CD79B ITAM_Mut
[15] = monotherapy 160 BID Schedule 2, CD79B ITAM_WT
[16] = monotherapy 160 BID Schedule 2, CD79B_Mut
[17] = monotherapy 160 BID Schedule 2, CD79B_WT
[18] = monotherapy 160 BID Schedule 2, MYD88_L265P
[19] = monotherapy 160 BID Schedule 2, MYD88_L265P/CD79B_Mut
[20] = monotherapy 160 BID Schedule 2, MYD88_WT
[21] = monotherapy 160 BID Schedule 2, NOTCH1_Mut
[22] = monotherapy 160 BID Schedule 2, NOTCH1_WT
[23] = monotherapy 160 BID Schedule 2, Non-GCB DLBCL Patients
[24] = monotherapy 160 BID Schedule 2, Non-GCB DLBCL Patients with Sequence Available
[25] = monotherapy 160 BID Schedule 2, Other (not MYD88_L265P/CD79B_Mut)
[26] = monotherapy 160 BID Schedule 2, Patients with Sequence Available
[27] = monotherapy Total (N = 79), ABC Subtype of DLBCL Patients
[28] = monotherapy Total (N = 79), CD79B ITAM_Mut
[29] = monotherapy Total (N = 79), CD79B ITAM_WT
[30] = monotherapy Total (N = 79), CD79B_Mut
[31] = monotherapy Total (N = 79), CD79B_WT
[32] = monotherapy Total (N = 79), MYD88_L265P
[33] = monotherapy Total (N = 79), MYD88_L265P/CD79B_Mut
[34] = monotherapy Total (N = 79), MYD88_WT
[35] = monotherapy Total (N = 79), NOTCH1_Mut
[36] = monotherapy Total (N = 79), NOTCH1_WT
[37] = monotherapy Total (N = 79), Non-GCB DLBCL Patients
[38] = monotherapy Total (N = 79), Non-GCB DLBCL Patients with Sequence Available
[39] = monotherapy Total (N = 79), Other (not MYD88_L265P/CD79B_Mut)
[40] = monotherapy Total (N = 79), Patients with Sequence Available

Structure (SMILES): C=CC(=O)N1CCC([C@@H]2CCNc3c(C(N)=O)c(-c4ccc(Oc5ccccc5)cc4)nn32)CC1 [Compound 1, (S)-7-(1-acryloylpiperidin-4-yl)-2-(4-phenoxyphenyl)-4,5,6,7-tetra-hydropyrazolo[1,5-a]pyrimidine-3-carboxamide]
- ORR (GEP-confirmed activated B-cell DLBCL, first of the two monotherapies (Schedule 1)): 53.8%
- ORR (GEP-confirmed activated B-cell DLBCL, second of the two monotherapies (Schedule 2)): 36%
- ORR [1]: 53.8
- Response/Patient [1]: 7/13
- ORR [2]: 100.0
- Response/Patient [2]: 2/2
- Difference in ORR (95% CI) (monotherapy 160 BID Schedule 1, CD79B ITAM_Mut vs CD79B ITAM_WT): 50.0
- ORR [3]: 50.0
- Response/Patient [3]: 4/8
- ORR [4]: 75.0
- Response/Patient [4]: 3/4
- Difference in ORR (95% CI) (monotherapy 160 BID Schedule 1, CD79B_Mut vs CD79B_WT): 25.0
- ORR [5]: 50.0
- Response/Patient [5]: 3/6
- ORR [6]: 0.0
- Response/Patient [6]: 0/1
- Difference in ORR (95% CI) (monotherapy 160 BID Schedule 1, MYD88_L265P vs MYD88_WT): −66.7
- ORR [7]: 66.7
- Response/Patient [7]: 6/9
- ORR [8]: 100.0
- Response/Patient [8]: 1/1
- Difference in ORR (95% CI) (monotherapy 160 BID Schedule 1, NOTCH1_Mut vs NOTCH1_WT): 44.4
- ORR [9]: 55.6
- Response/Patient [9]: 5/9
- ORR [10]: 31.6
- Response/Patient [10]: 12/38
- ORR [11]: 60.0
- Response/Patient [11]: 6/10
- ORR (monotherapy 160 BID Schedule 1, Other (not MYD88_L265P/CD79B_Mut)): 60.0
- ORR [12]: 63.6
- Response/Patient [12]: 7/11
- ORR [13]: 36.0
- Response/Patients [13]: 9/25
- ORR [14]: 46.2
- Response/Patients [14]: 6/13
- Difference in ORR (95% CI) (monotherapy 160 BID Schedule 2, CD79B ITAM_Mut vs CD79B ITAM_WT): 17.6
- ORR [15]: 28.6
- Response/Patients [15]: 6/21
- ORR [16]: 46.2
- Response/Patients [16]: 6/13
- Difference in ORR (95% CI) (monotherapy 160 BID Schedule 2, CD79B_Mut vs CD79B_WT): 17.6
- ORR [17]: 28.6
- Response/Patients [17]: 6/21
- ORR [18]: 40.0
- Response/Patients [18]: 4/10
- Difference in ORR (95% CI) (monotherapy 160 BID Schedule 2, MYD88_L265P vs MYD88_WT): 6.7
- ORR [19]: 50.0
- Response/Patients [19]: 3/6
- Difference in ORR (95% CI) (monotherapy 160 BID Schedule 2, MYD88_L265P/CD79B_Mut vs Other): 17.9
- ORR [20]: 33.3
- Response/Patients [20]: 8/24
- ORR [21]: 100.0
- Response/Patients [21]: 2/2
- Difference in ORR (95% CI) (monotherapy 160 BID Schedule 2, NOTCH1_Mut vs NOTCH1_WT): 68.8
- ORR [22]: 31.3
- Response/Patients [22]: 10/32
- ORR [23]: 29.3
- Response/Patients [23]: 12/41
- ORR [24]: 35.3
- Response/Patients [24]: 12/34
- ORR [25]: 32.1
- Response/Patients [25]: 9/28
- ORR [26]: 35.3
- Response/Patients [26]: 12/34
- ORR [27]: 42.1
- Response/Patients [27]: 16/38
- ORR [28]: 53.3
- Response/Patients [28]: 8/15
- Difference in ORR (95% CI) (monotherapy Total (N = 79), CD79B ITAM_Mut vs CD79B ITAM_WT): 18.9
- ORR [29]: 34.5
- Response/Patients [29]: 10/29
- ORR [30]: 52.9
- Response/Patients [30]: 9/17
- Difference in ORR (95% CI) (monotherapy Total (N = 79), CD79B_Mut vs CD79B_WT): 19.6
- ORR [31]: 33.3
- Response/Patients [31]: 9/27
- ORR [32]: 36.4
- Response/Patients [32]: 4/11
- Difference in ORR (95% CI) (monotherapy Total (N = 79), MYD88_L265P vs MYD88_WT): −6.1
- ORR [33]: 50.0
- Response/Patients [33]: 3/6
- Difference in ORR (95% CI) (monotherapy Total (N = 79), MYD88_L265P/CD79B_Mut vs Other): 10.5
- ORR [34]: 42.4
- Response/Patients [34]: 14/33
- ORR [35]: 100.0
- Response/Patients [35]: 3/3
- Difference in ORR (95% CI) (monotherapy Total (N = 79), NOTCH1_Mut vs NOTCH1_WT): 63.4
- ORR [36]: 36.6
- Response/Patients [36]: 15/41
- ORR [37]: 30.4
- Response/Patients [37]: 24/79
- ORR [38]: 40.9
- Response/Patients [38]: 18/44
- ORR [39]: 39.5
- Response/Patients [39]: 15/38
- ORR [40]: 42.2
- Response/Patients [40]: 19/45
- unadjusted ORR (first of the two monotherapies (Schedule 1)): 31.6%
- unadjusted ORR (second of the two monotherapies (Schedule 2)): 29.3%
- ORR (two monotherapies, NOTCH1 mutant (n=3)): 100%
- ORR (two monotherapies, non-GCB DLBCL with CD79B mutations (n=17)): 52.9%
- ORR (two monotherapies, other population (without CD79B mutations)): 33.3%
- ORR (two monotherapies, patients without NOTCH1 mutation): 36.6%
